{"source": "paper PMC11249646", "about": "“Small-Molecule Disruptors of the Interaction between Calcium- and Integrin-Binding Protein 1 and Integrin αIIbβ3 as Novel Antiplatelet Agents” (ACS Pharmacology & Translational Science, 2024)", "data": [{"biological_target": "T1, CIB1 and αIIb interaction (CIB1-GST : F-αIIb peptide) (Homo sapiens, UniProt Q99828)", "T1 construct": "made in house; host or cells: BL-21 plus RIL cells (E. coli)", "T1 sequence (Q99828 1-191)": "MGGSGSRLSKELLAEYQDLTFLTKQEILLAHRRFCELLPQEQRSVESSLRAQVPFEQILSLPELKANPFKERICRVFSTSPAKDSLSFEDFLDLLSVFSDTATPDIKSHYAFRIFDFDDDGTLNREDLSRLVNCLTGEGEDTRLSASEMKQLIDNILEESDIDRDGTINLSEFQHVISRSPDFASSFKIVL", "assay": "FP assay, 1536-well qHTS format (primary and confirmatory screen)", "assay_type": "binding", "settings": "Table S3, confirmatory screen, YES/NO call", "values": [{"smiles": "CN(C(=O)c1cccs1)c1cccnc1.O=C(O)C(F)(F)F", "note": "[NCGC00241518-01]", "Confirm? (confirmatory screen)": "YES"}, {"smiles": "Cc1cc(NS(=O)(=O)c2ccc(NC(=O)Cc3cccc4ccccc34)cc2)no1.O=C(O)C(F)(F)F", "note": "[NCGC00244880-01]", "Confirm? (confirmatory screen)": "YES"}, {"smiles": "CN(C)CCc1c[nH]c2cccc(O)c12", "note": "[NCGC00247728-01]", "Confirm? (confirmatory screen)": "YES"}]}, {"biological_target": "T1, CIB1 and αIIb interaction (CIB1-GST : F-αIIb peptide)", "assay": "FP assay, 1536-well qHTS format (primary and confirmatory screen)", "assay_type": "binding", "settings": "Table S3, confirmatory screen, qHTS curve class; a negative sign marks inhibitory curves", "values": [{"smiles": "CCOc1ccc(CCNC(=O)c2ccc(N3N=C(C)CC3=O)cc2)cc1OCC.O=C(O)C(F)(F)F", "note": "[NCGC00241439-01]", "Curve Class (confirmatory screen)": 4}, {"smiles": "CN(C(=O)c1cccs1)c1cccnc1.O=C(O)C(F)(F)F", "note": "[NCGC00241518-01]", "Curve Class (confirmatory screen)": -1.1}, {"smiles": "CC(C)c1ccc(NC(=S)N/N=C2\\C(=O)Nc3ccccc32)cc1.O=C(O)C(F)(F)F", "note": "[NCGC00242646-01]", "Curve Class (confirmatory screen)": 4}, {"smiles": "Cc1cc(NS(=O)(=O)c2ccc(NC(=O)Cc3cccc4ccccc34)cc2)no1.O=C(O)C(F)(F)F", "note": "[NCGC00244880-01]", "Curve Class (confirmatory screen)": -2.2}, {"smiles": "CN(C)CCc1c[nH]c2cccc(O)c12", "note": "[NCGC00247728-01]", "Curve Class (confirmatory screen)": -2.2}]}, {"biological_target": "T1, CIB1 and αIIb interaction (CIB1-GST : F-αIIb peptide)", "assay": "FP assay, 1536-well qHTS format (primary and confirmatory screen)", "assay_type": "binding", "settings": "Table S3, confirmatory screen; negative = inhibition", "units": {"Efficacy (%) (confirmatory screen)": "%"}, "values": [{"smiles": "CCOc1ccc(CCNC(=O)c2ccc(N3N=C(C)CC3=O)cc2)cc1OCC.O=C(O)C(F)(F)F", "note": "[NCGC00241439-01]", "Efficacy (%) (confirmatory screen)": -41}, {"smiles": "CN(C(=O)c1cccs1)c1cccnc1.O=C(O)C(F)(F)F", "note": "[NCGC00241518-01]", "Efficacy (%) (confirmatory screen)": -90}, {"smiles": "CC(C)c1ccc(NC(=S)N/N=C2\\C(=O)Nc3ccccc32)cc1.O=C(O)C(F)(F)F", "note": "[NCGC00242646-01]", "Efficacy (%) (confirmatory screen)": -28}, {"smiles": "Cc1cc(NS(=O)(=O)c2ccc(NC(=O)Cc3cccc4ccccc34)cc2)no1.O=C(O)C(F)(F)F", "note": "[NCGC00244880-01]", "Efficacy (%) (confirmatory screen)": -48}, {"smiles": "CN(C)CCc1c[nH]c2cccc(O)c12", "note": "[NCGC00247728-01]", "Efficacy (%) (confirmatory screen)": -101}]}, {"biological_target": "T1, CIB1 and αIIb interaction (CIB1-GST : F-αIIb peptide)", "assay": "FP assay, 1536-well qHTS format (primary and confirmatory screen)", "assay_type": "binding", "settings": "Table S3, confirmatory screen; read-out: IC50 [μM] (confirmatory screen)", "units": {"IC50": "µM"}, "values": [{"smiles": "CN(C(=O)c1cccs1)c1cccnc1.O=C(O)C(F)(F)F", "note": "[NCGC00241518-01]", "IC50": 31.6}, {"smiles": "Cc1cc(NS(=O)(=O)c2ccc(NC(=O)Cc3cccc4ccccc34)cc2)no1.O=C(O)C(F)(F)F", "note": "[NCGC00244880-01]", "IC50": 31.6}, {"smiles": "CN(C)CCc1c[nH]c2cccc(O)c12", "note": "[NCGC00247728-01]", "IC50": 112}]}, {"biological_target": "T1, CIB1 and αIIb interaction (CIB1-GST : F-αIIb peptide)", "assay": "FP assay, 1536-well qHTS format (primary and confirmatory screen)", "assay_type": "binding", "settings": "qHTS FP screen hits, Table S2; negative = inhibition", "units": {"Efficacy (%)": "%"}, "values": [{"smiles": "CN(C(=O)c1cccs1)c1cccnc1.O=C(O)C(F)(F)F", "note": "[NCGC00241518-01]", "Efficacy (%)": -77}]}, {"biological_target": "T1, CIB1 and αIIb interaction (CIB1-GST : F-αIIb peptide)", "assay": "FP assay, 1536-well qHTS format (primary and confirmatory screen)", "assay_type": "binding", "settings": "qHTS FP screen hits, Table S2; one class per curve where COUNT > 1; negative sign = inhibitory curve", "values": [{"smiles": "CN(C(=O)c1cccs1)c1cccnc1.O=C(O)C(F)(F)F", "note": "[NCGC00241518-01]", "Curve Class": -2.2}]}, {"biological_target": "T1, CIB1 and αIIb interaction (CIB1-GST : F-αIIb peptide)", "assay": "FP assay, 1536-well qHTS format (primary and confirmatory screen)", "assay_type": "binding", "settings": "qHTS FP screen hits, Table S2; read-out: IC50", "units": {"IC50": "µM"}, "values": [{"smiles": "CN(C(=O)c1cccs1)c1cccnc1.O=C(O)C(F)(F)F", "note": "[NCGC00241518-01]", "IC50": 50.1}]}, {"biological_target": "T1, CIB1 and αIIb interaction (CIB1-GST : F-αIIb peptide)", "assay": "FP assay, 1536-well qHTS format (primary and confirmatory screen)", "assay_type": "binding", "settings": "qHTS primary screen hits, Table S2; negative = inhibition", "units": {"Efficacy (%)": "%"}, "values": [{"smiles": "CCOc1ccc(CCNC(=O)c2ccc(N3N=C(C)CC3=O)cc2)cc1OCC.O=C(O)C(F)(F)F", "note": "[NCGC00241439-01]", "Efficacy (%)": -42}, {"smiles": "CC(C)c1ccc(NC(=S)N/N=C2\\C(=O)Nc3ccccc32)cc1.O=C(O)C(F)(F)F", "note": "[NCGC00242646-01]", "Efficacy (%)": -16}, {"smiles": "Cc1cc(NS(=O)(=O)c2ccc(NC(=O)Cc3cccc4ccccc34)cc2)no1.O=C(O)C(F)(F)F", "note": "[NCGC00244880-01]", "Efficacy (%)": -21}, {"smiles": "CN(C)CCc1c[nH]c2cccc(O)c12", "note": "[NCGC00247728-01]", "Efficacy (%)": -105}]}, {"biological_target": "T1, CIB1 and αIIb interaction (CIB1-GST : F-αIIb peptide)", "assay": "FP assay, 1536-well qHTS format (primary and confirmatory screen)", "assay_type": "binding", "settings": "qHTS primary screen hits, Table S2; negative sign = inhibitory curve; several classes where COUNT > 1", "values": [{"smiles": "CCOc1ccc(CCNC(=O)c2ccc(N3N=C(C)CC3=O)cc2)cc1OCC.O=C(O)C(F)(F)F", "note": "[NCGC00241439-01]", "Curve Class": -1.2}, {"smiles": "CC(C)c1ccc(NC(=S)N/N=C2\\C(=O)Nc3ccccc32)cc1.O=C(O)C(F)(F)F", "note": "[NCGC00242646-01]", "Curve Class": -1.4}, {"smiles": "Cc1cc(NS(=O)(=O)c2ccc(NC(=O)Cc3cccc4ccccc34)cc2)no1.O=C(O)C(F)(F)F", "note": "[NCGC00244880-01]", "Curve Class": -1.4}, {"smiles": "CN(C)CCc1c[nH]c2cccc(O)c12", "note": "[NCGC00247728-01]", "Curve Class": -2.3}]}, {"biological_target": "T1, CIB1 and αIIb interaction (CIB1-GST : F-αIIb peptide)", "assay": "FP assay, 1536-well qHTS format (primary and confirmatory screen)", "assay_type": "binding", "settings": "qHTS primary screen hits, Table S2; read-out: IC50", "units": {"IC50": "µM"}, "values": [{"smiles": "CCOc1ccc(CCNC(=O)c2ccc(N3N=C(C)CC3=O)cc2)cc1OCC.O=C(O)C(F)(F)F", "note": "[NCGC00241439-01]", "IC50": 22.4}, {"smiles": "CC(C)c1ccc(NC(=S)N/N=C2\\C(=O)Nc3ccccc32)cc1.O=C(O)C(F)(F)F", "note": "[NCGC00242646-01]", "IC50": 10}, {"smiles": "Cc1cc(NS(=O)(=O)c2ccc(NC(=O)Cc3cccc4ccccc34)cc2)no1.O=C(O)C(F)(F)F", "note": "[NCGC00244880-01]", "IC50": 17.8}, {"smiles": "CN(C)CCc1c[nH]c2cccc(O)c12", "note": "[NCGC00247728-01]", "IC50": 28.2}]}, {"biological_target": "T2, GST-CIB1 : F-scrambled peptide (Homo sapiens, UniProt Q99828)", "T2 construct": "made in house; host or cells: BL-21 plus RIL cells (E. coli)", "T2 sequence (Q99828 1-191)": "T1 sequence (Q99828 1-191)", "assay": "FP scrambled-peptide counter screen, 1536-well format", "assay_type": "binding", "settings": "Table S3, counterscreen, YES/NO call", "values": [{"smiles": "CC(C)c1ccc(NC(=S)N/N=C2\\C(=O)Nc3ccccc32)cc1.O=C(O)C(F)(F)F", "note": "[NCGC00242646-01]", "Confirm? (counterscreen)": "YES"}]}, {"biological_target": "T2, GST-CIB1 : F-scrambled peptide", "assay": "FP scrambled-peptide counter screen, 1536-well format", "assay_type": "binding", "settings": "Table S3, counterscreen, qHTS curve class; a negative sign marks inhibitory curves", "values": [{"smiles": "CCOc1ccc(CCNC(=O)c2ccc(N3N=C(C)CC3=O)cc2)cc1OCC.O=C(O)C(F)(F)F", "note": "[NCGC00241439-01]", "Curve Class (counterscreen)": 4}, {"smiles": "CN(C(=O)c1cccs1)c1cccnc1.O=C(O)C(F)(F)F", "note": "[NCGC00241518-01]", "Curve Class (counterscreen)": -2.1}, {"smiles": "CC(C)c1ccc(NC(=S)N/N=C2\\C(=O)Nc3ccccc32)cc1.O=C(O)C(F)(F)F", "note": "[NCGC00242646-01]", "Curve Class (counterscreen)": -1.2}, {"smiles": "Cc1cc(NS(=O)(=O)c2ccc(NC(=O)Cc3cccc4ccccc34)cc2)no1.O=C(O)C(F)(F)F", "note": "[NCGC00244880-01]", "Curve Class (counterscreen)": -2.2}, {"smiles": "CN(C)CCc1c[nH]c2cccc(O)c12", "note": "[NCGC00247728-01]", "Curve Class (counterscreen)": -2.1}]}, {"biological_target": "T2, GST-CIB1 : F-scrambled peptide", "assay": "FP scrambled-peptide counter screen, 1536-well format", "assay_type": "binding", "settings": "Table S3, counterscreen; negative = inhibition", "units": {"Efficacy (%) (counterscreen)": "%"}, "values": [{"smiles": "CCOc1ccc(CCNC(=O)c2ccc(N3N=C(C)CC3=O)cc2)cc1OCC.O=C(O)C(F)(F)F", "note": "[NCGC00241439-01]", "Efficacy (%) (counterscreen)": -33}, {"smiles": "CN(C(=O)c1cccs1)c1cccnc1.O=C(O)C(F)(F)F", "note": "[NCGC00241518-01]", "Efficacy (%) (counterscreen)": -118}, {"smiles": "CC(C)c1ccc(NC(=S)N/N=C2\\C(=O)Nc3ccccc32)cc1.O=C(O)C(F)(F)F", "note": "[NCGC00242646-01]", "Efficacy (%) (counterscreen)": -36}, {"smiles": "Cc1cc(NS(=O)(=O)c2ccc(NC(=O)Cc3cccc4ccccc34)cc2)no1.O=C(O)C(F)(F)F", "note": "[NCGC00244880-01]", "Efficacy (%) (counterscreen)": -64}, {"smiles": "CN(C)CCc1c[nH]c2cccc(O)c12", "note": "[NCGC00247728-01]", "Efficacy (%) (counterscreen)": -126}]}, {"biological_target": "T2, GST-CIB1 : F-scrambled peptide", "assay": "FP scrambled-peptide counter screen, 1536-well format", "assay_type": "binding", "settings": "Table S3, counterscreen; read-out: IC50 [μM] (counterscreen)", "units": {"IC50": "µM"}, "values": [{"smiles": "CN(C(=O)c1cccs1)c1cccnc1.O=C(O)C(F)(F)F", "note": "[NCGC00241518-01]", "IC50": 44.7}, {"smiles": "CC(C)c1ccc(NC(=S)N/N=C2\\C(=O)Nc3ccccc32)cc1.O=C(O)C(F)(F)F", "note": "[NCGC00242646-01]", "IC50": 12.6}, {"smiles": "Cc1cc(NS(=O)(=O)c2ccc(NC(=O)Cc3cccc4ccccc34)cc2)no1.O=C(O)C(F)(F)F", "note": "[NCGC00244880-01]", "IC50": 20}, {"smiles": "CN(C)CCc1c[nH]c2cccc(O)c12", "note": "[NCGC00247728-01]", "IC50": 89.1}]}]}
